# Reference: PubChem BioAssay (NCI)
#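 Tested at 5 concentrations; 48 h exposure; 96-well plates; endpoints linearly interpolated, else capped at highest concentration. Here, GI50 denotes the concentration required for 50% inhibition of growth. Definition used: TGI = concentration required for complete inhibition of growth.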
# Columns and labels:
# Assay in all cases: NCI-60 cell line screen, 48 h
# RXF 393 renal = tested on: RXF 393 renal
# SK-MEL-28 melanoma = tested on: SK-MEL-28 melanoma
# HOP-62 NSCLC = tested on: HOP-62 NSCLC
# MALME-3M melanoma = tested on: MALME-3M melanoma
# SF-539 CNS = tested on: SF-539 CNS
# NCI-H460 lung = tested on: NCI-H460 lung
# A549 NSCLC = tested on: A549 NSCLC
# NCI-H226 lung = tested on: NCI-H226 lung
# SK-OV-3 ovarian = tested on: SK-OV-3 ovarian
# HL-60(TB) leukemia = tested on: HL-60(TB) leukemia
SMILES,GI50 (RXF 393 renal) [µM],TGI (RXF 393 renal) [µM],GI50 (SK-MEL-28 melanoma) [µM],TGI (SK-MEL-28 melanoma) [µM],GI50 (HOP-62 NSCLC) [µM],TGI (HOP-62 NSCLC) [µM],GI50 (MALME-3M melanoma) [µM],TGI (MALME-3M melanoma) [µM],GI50 (SF-539 CNS) [µM],TGI (SF-539 CNS) [µM],GI50 (NCI-H460 lung) [µM],TGI (NCI-H460 lung) [µM],GI50 (A549 NSCLC) [µM],TGI (A549 NSCLC) [µM],GI50 (NCI-H226 lung) [µM],TGI (NCI-H226 lung) [µM],GI50 (SK-OV-3 ovarian) [µM],TGI (SK-OV-3 ovarian) [µM],GI50 (HL-60(TB) leukemia) [µM],TGI (HL-60(TB) leukemia) [µM]
COC1/C=C/OC2(C)Oc3c(C)c(O)c4c(O)c(c(C=NOC(c5ccccc5)c5ccccc5)c(O)c4c3C2=O)NC(=O)/C(C)=C/C=C/C(C)C(O)C(C)C(O)C(C)C(OC(C)=O)C1C (stereo not given),0.943,1.74,0.959,2.08,0.916,1.85,1.19,3.38,0.979,1.95,1.05,2.18,1.58,6.05,1.74,8.76,1.88,6.67,1.84,3.83
COc1cccc(/C=C2\CCc3ccccc3C2=O)c1,16.1,32.4,15.5,31,14.6,29.2,12.7,29,16.4,36.9,17,35,20.1,60.1,17.8,43.1,20.7,75.6,21.9,67.4
C/C(CC(=O)Nc1cccc(C)c1C)=N\NC(N)=S,,> 100,,> 100,,> 100,,> 100,,> 100,,> 100,,> 100,,> 100,,> 100,,> 100
O=C(c1ccccc1)c1c2n(c3c1cc(O)c1ccccc13)CCN2,11.1,27.1,12.1,27.3,5.6,17.9,1.97,4.19,2.39,6.04,4.7,15.8,14.2,35.5,18.6,41.3,11.1,25.2,2.17,4.47
O=C1Nc2c(ccc(Cl)c2Cl)/C1=C\c1cc(C(F)(F)F)cc(C(F)(F)F)c1,1.21,2.94,2.1,7.61,7.04,14.4,0.795,8.91,6.95,13.8,2.45,7.68,4.81,13,5.48,13.7,9.28,27.2,1.13,2.37
CS(=O)(=O)c1ccc(-c2cnc(NCc3ccco3)n3cnnc23)cc1,> 100,> 100,25.3,> 100,> 100,> 100,27.5,> 100,> 100,> 100,> 100,> 100,> 100,> 100,49,> 100,> 100,> 100,39.7,> 100
CNC(=O)c1cc(Oc2ccc3nc(NC(=O)Nc4cc(C(F)(F)F)cc(C(F)(F)F)c4)sc3c2)ccn1,1.25,2.99,1.29,2.93,1.15,2.8,0.908,2.49,1.24,2.8,1.23,2.85,1.3,2.67,1.45,3.57,1.43,3.18,1.6,4.17
COC(=O)Cc1nn2c(nc1=O)sc1ccc3ccccc3c12,,96,,> 100,,> 100,,> 100,,> 100,,> 100,,> 100,,> 100,,> 100,,> 100
CC(O)c1ccc(C(O)/C(=N\NC(=O)c2ccncc2)c2nc3ccc([N+](=O)[O-])cc3[nH]c2=O)cc1 (stereo not given),,> 100,,> 100,,> 100,,> 100,,> 100,,> 100,,> 100,,> 100,,> 100,,> 100
COc1ccc2c(c1)C(=O)c1c-2c(OCCN2CCCCC2)nc2ccc(OC)cc12,1.9,11,3.52,12.8,0.595,11.2,1.27,4.47,0.693,12.4,0.286,1.1,0.674,2.16,0.705,2.82,2.02,16.4,1.08,6.64
O=C1c2ccccc2-c2ccccc2C1(Cl)Cl,1.78,3.2,1.8,3.24,1.13,2.64,0.98,2.3,1.71,3.23,1.91,3.97,1.49,3.21,1.79,3.49,1.7,3.08,2.29,5.93
O=C(O)c1c[nH]c2c(ccc3[nH]cc(C(=O)O)c(=O)c32)c1=O,,> 100,,> 100,,> 100,,> 100,,> 100,,> 100,,> 100,,> 100,,> 100,,> 100
Cc1ccnc(NC(c2ccccc2)c2ccc3cccnc3c2O)c1 (stereo not given),7.93,> 100,13.8,> 100,4.41,96.2,2.89,34.9,3.35,19.2,2.16,6.34,3.99,45.1,4.48,44.6,4.36,> 100,1.7,5.4
CC(C)=Cc1cc(C(=O)NCCNC(=O)c2cc(C=C(C)C)nc(NC#N)n2)nc(NC#N)n1,,> 100,,> 100,,> 100,,> 100,,> 100,,> 100,,> 100,,> 100,,> 100,,> 100
